Data as given in US9249129B2, “Morpholino substituted urea derivatives as mTOR inhibitors” (CELLZOME LIMITED, priority 2010, dated 2016).

How the values were obtained:
Assay in all cases: kinobeads assay with mass spectrometry detection of kinases (kinase selectivity profile)
Assay type in all cases: binding
kinases (kinome) [1] = biological target: T1, kinases (kinome) (Homo sapiens, UniProt P07947); details: YES (TK), IPI00013981
T1 construct: determined in kinobeads assays with mass spectrometry detection of kinases as described previously; endogenous in cells; host or cells: cell lysate
Description: (§1) The protein kinase complement of the human genome (the kinome) was described previously (Manning et al., 2002. Science 298(5600):1912-1934). Sequence accession numbers are defined by the International Protein Index (IPI) (Kersey et al., 2004. Proteomics 4(7):1985-1988).

kinases (kinome) [2] = biological target: T2, kinases (kinome) (Homo sapiens, UniProt P45983); details: JNK1 (CMGC), IPI00220306
T2 construct: determined in kinobeads assays with mass spectrometry detection of kinases as described previously; endogenous in cells; host or cells: cell lysate
Description: as §1

kinases (kinome) [3] = biological target: T3, kinases (kinome) (Homo sapiens, UniProt P78527); details: DNAPK (Atypical), IPI00296337
T3 construct: determined in kinobeads assays with mass spectrometry detection of kinases as described previously; endogenous in cells; host or cells: cell lysate
Description: as §1

kinases (kinome) [4] = biological target: T4, kinases (kinome) (Homo sapiens, UniProt Q13163); details: MAP2K5 (STE), IPI00158248
T4 construct: determined in kinobeads assays with mass spectrometry detection of kinases as described previously; endogenous in cells; host or cells: cell lysate
T4 sequence (Q13163 1-448): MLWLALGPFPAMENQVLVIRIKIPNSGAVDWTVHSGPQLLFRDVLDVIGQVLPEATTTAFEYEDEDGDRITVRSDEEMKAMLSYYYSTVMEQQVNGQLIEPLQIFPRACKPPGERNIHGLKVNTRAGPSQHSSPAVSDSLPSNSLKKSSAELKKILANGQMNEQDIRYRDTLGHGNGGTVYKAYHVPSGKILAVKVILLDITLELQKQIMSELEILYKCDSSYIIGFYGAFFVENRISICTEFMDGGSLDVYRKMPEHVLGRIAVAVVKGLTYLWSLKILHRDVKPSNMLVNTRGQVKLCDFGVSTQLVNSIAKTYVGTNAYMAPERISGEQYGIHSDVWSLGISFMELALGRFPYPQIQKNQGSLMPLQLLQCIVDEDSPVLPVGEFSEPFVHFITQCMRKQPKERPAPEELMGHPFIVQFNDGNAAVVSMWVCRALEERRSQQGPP
Description: as §1

kinases (kinome) [5] = biological target: T5, kinases (kinome) (Homo sapiens, UniProt Q96RR4); details: CaMKK2 (Other), IPI00290239
T5 construct: determined in kinobeads assays with mass spectrometry detection of kinases as described previously; endogenous in cells; host or cells: cell lysate
Description: as §1

kinases (kinome) [6] = biological target: T6, kinases (kinome) (Homo sapiens, UniProt Q9UL54); details: TAO2 (STE), IPI00006283
T6 construct: determined in kinobeads assays with mass spectrometry detection of kinases as described previously; endogenous in cells; host or cells: cell lysate
T6 sequence (Q9UL54 1-1235): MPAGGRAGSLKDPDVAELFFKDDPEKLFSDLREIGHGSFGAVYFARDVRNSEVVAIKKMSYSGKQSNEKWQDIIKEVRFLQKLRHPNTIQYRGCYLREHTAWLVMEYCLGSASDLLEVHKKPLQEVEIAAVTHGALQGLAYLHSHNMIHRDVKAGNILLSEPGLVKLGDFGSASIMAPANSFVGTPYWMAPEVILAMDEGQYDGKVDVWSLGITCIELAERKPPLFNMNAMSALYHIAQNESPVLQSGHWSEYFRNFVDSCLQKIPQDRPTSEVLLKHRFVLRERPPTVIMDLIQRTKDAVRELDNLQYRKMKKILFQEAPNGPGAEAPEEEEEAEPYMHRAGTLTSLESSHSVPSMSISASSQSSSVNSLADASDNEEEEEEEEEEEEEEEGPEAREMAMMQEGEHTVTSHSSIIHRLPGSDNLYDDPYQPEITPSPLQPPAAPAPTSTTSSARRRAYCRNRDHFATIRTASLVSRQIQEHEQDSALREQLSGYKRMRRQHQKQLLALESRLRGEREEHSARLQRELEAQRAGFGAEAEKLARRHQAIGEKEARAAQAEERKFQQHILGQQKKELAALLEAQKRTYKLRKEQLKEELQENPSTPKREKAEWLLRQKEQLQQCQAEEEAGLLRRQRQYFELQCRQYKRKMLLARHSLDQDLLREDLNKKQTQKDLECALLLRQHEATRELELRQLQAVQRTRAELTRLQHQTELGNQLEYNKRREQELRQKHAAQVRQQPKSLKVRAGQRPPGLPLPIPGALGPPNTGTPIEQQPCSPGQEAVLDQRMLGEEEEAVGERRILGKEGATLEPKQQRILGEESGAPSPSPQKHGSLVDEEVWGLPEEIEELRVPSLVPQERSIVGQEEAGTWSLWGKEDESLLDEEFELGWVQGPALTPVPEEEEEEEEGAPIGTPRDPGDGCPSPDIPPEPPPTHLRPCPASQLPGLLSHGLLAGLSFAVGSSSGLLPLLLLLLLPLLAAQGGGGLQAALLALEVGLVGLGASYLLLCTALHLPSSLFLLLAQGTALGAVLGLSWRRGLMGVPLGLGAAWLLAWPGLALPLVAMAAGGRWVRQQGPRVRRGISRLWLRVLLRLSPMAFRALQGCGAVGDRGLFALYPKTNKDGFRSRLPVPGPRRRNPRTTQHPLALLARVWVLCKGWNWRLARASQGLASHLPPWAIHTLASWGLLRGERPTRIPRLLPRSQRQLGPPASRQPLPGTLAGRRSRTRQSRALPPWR
Description: as §1

Measured: IC50

T2 sequence (P45983 whole entry): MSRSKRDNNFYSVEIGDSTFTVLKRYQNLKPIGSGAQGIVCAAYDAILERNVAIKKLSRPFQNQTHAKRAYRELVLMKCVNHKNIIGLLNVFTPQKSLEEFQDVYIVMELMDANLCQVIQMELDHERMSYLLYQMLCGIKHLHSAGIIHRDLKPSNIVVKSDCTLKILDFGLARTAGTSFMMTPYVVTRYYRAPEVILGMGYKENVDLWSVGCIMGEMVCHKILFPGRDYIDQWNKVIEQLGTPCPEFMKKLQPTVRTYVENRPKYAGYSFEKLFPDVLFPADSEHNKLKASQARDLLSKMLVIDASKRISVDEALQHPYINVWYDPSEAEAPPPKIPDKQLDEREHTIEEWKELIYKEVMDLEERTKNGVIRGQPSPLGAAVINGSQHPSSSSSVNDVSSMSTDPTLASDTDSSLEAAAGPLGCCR
T5 sequence (Q96RR4 whole entry): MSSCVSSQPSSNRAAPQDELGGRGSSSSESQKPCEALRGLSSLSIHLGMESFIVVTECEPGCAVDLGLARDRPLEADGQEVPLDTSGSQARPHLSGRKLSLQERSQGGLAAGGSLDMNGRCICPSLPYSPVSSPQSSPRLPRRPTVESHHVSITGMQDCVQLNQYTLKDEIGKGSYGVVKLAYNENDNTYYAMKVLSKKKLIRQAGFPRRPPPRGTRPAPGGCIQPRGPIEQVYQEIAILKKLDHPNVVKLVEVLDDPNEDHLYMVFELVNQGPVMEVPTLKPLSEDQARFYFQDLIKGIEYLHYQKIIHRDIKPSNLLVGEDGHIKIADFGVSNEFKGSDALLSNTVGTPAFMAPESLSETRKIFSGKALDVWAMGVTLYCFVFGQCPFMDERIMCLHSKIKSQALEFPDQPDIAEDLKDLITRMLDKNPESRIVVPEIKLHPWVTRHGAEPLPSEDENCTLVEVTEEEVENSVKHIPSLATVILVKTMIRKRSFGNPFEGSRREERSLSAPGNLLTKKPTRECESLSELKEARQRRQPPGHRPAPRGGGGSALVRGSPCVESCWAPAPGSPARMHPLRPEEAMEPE
T1 sequence (P07947 whole entry): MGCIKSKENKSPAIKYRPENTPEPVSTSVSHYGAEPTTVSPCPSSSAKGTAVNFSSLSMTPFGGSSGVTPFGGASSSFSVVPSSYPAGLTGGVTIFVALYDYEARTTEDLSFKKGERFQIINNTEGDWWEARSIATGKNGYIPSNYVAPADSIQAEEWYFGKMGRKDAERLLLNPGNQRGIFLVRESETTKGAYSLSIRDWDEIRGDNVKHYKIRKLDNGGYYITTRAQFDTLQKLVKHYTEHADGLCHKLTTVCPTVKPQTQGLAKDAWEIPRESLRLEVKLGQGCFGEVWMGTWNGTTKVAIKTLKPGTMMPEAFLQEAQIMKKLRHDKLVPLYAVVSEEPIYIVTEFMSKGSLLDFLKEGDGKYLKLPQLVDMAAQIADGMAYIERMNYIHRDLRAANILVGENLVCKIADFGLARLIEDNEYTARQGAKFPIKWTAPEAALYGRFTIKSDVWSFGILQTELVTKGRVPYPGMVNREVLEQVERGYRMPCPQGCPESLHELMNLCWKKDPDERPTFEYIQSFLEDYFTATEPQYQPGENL

C[C@H]1COCCN1c1nc(-c2ccc(NC(=O)NC3CC3)cc2)cc(-c2ccccc2S(C)(=O)=O)n1 [Example 4, (S)-1-cyclopropyl-3-(4-(2-(3-methylmorpholino)-6-(2-(methylsulfonyl)phenyl)pyrimidin-4-yl)phenyl)urea]
> 10 µM: all assays above

C[C@H]1COCCN1c1cc(-c2ccccc2S(C)(=O)=O)nc(-c2ccc(NC(=O)NC3CC3)cc2)n1 [Example 6, (S)-1-cyclopropyl-3-(4-(4-(3-methylmorpholino)-6-(2-(methylsulfonyl)phenyl)pyrimidin-2-yl)phenyl)urea]
> 10 µM: all assays above

C[C@H]1COCCN1c1nc(-c2ccc(NC(=O)N[C@H]3CCC[C@@H]3O)cc2)cc(-c2cc(F)ccc2S(C)(=O)=O)n1 [Example 76, 1-(4-(6-(5-fluoro-2-(methylsulfonyl)phenyl)-2-((S)-3-methylmorpholino)pyrimidin-4-yl)phenyl)-3-((1S,2S)-2-hydroxycyclopentyl)urea]
> 10 µM: all assays above

C[C@H]1COCCN1c1nc(-c2ccc(NC(=O)NC3CC3)cc2)cc(-c2cccnc2S(C)(=O)=O)n1 [Example 46, (S)-1-cyclopropyl-3-(4-(2-(3-methylmorpholino)-6-(2-(methylsulfonyl)pyridin-3-yl)pyrimidin-4-yl)phenyl)urea]
> 10 µM: all assays above

C[C@H]1COCCN1c1cc(-c2ccccn2)nc(-c2ccc(NC(=O)NCCO)cc2)n1 [Example 43, (S)-1-(2-hydroxyethyl)-3-(4-(4-(3-methylmorpholino)-6-(pyridin-2-yl)pyrimidin-2-yl)phenyl)urea]
> 10 µM: all assays above

C[C@H]1COCCN1c1nc(-c2ccc(NC(=O)NC3CC3)cc2)cc(-c2cc(F)ccc2S(C)(=O)=O)n1 [Example 40, (S)-1-cyclopropyl-3-(4-(6-(5-fluoro-2-(methylsulfonyl)phenyl)-2-(3-methylmorpholino)pyrimidin-4-yl)phenyl)urea]
> 10 µM: all assays above

CCNC(=O)Nc1ccc(-c2cc(-c3ccccc3C#N)nc(N3CCOC[C@@H]3C)n2)cc1 [Example 8, (S)-1-(4-(6-(2-cyanophenyl)-2-(3-methylmorpholino)pyrimidin-4-yl)phenyl)-3-ethylurea]
> 10 µM: all assays above
